Entries after “also recorded” stand apart in the source; their conditions may differ. Read-outs that look alike come from different tables or passages of the source.
Columns and labels:
[1] = tested on: T. brucei microsomes (TbRM); experiment: Post-translational import of VSG—11786 into T. brucei microsomes, proteinase K protection (Example 2); type: biochemical, Trypanosoma brucei; conditions: for effect on protein import into TbRM (in words): VSG—11786 substrate
Description: FIGS. 2A and 2B show the effect of protein translocation inhibitors on TbRM. FIG. 2A presents the protocol used for import of VSG—117500. In FIG. 2B, SG—117500 mRNA was translated in rabbit reticulocyte lysate with 1.5 equivalents T. brucei cytosol (pretreated with MAL3-101 (0.3 μM), MAL3-51 (1 μM), CJ21,058 (20 μM) or equisetin (50 μM)) for 60 minutes. The reaction mixtures were treated with cycloheximide (50 μg/ml, final concentration) and incubated with TbRM (one equivalent). The mixture was incubated for 60 minutes at 37° C. and digested with proteinase K digestion (30 μg/ml, final concentration) for 60 minutes on ice. Proteins were resolved by SDS-PAGE and detected by phosphorimaging. In lanes 1 and 2, TbRM were pretreated with DMSO. Lane 1 is untreated VSG—117500 with TbRM; lane 2 is VSG—117500 incubated with TbRM and treated with proteinase K. In lanes 3 and 4 TbRM were pretreated with MAL3-101. Lane 3 is VSG—117500 incubated with TbRM; lane 4 is VSG—117500 incubated with TbRM and then treated with proteinase K. In lanes 5 and 6 TbRM pretreated with MAL3-51. Lane 5 is VSG—117500 incubated with TbRM; lane 6 is VSG—117500 incubated with TbRM and then treated with proteinase K. In lanes 7 and 8 TbRM were pretreated with CJ-21,058). Lane 7 is VSG—117500 incubated with TbRM; lane 8 is VSG—117500 incubated with ThRM and then treated with proteinase K. In lanes 9 and 10 TbRM were pretreated with equisetin). Lane 9 is VSG—117500 incubated with TbRM; lane 10 is VSG—117500 incubated with TbRM and then treated with proteinase K.
Protein import into TbRM. Two micrograms (μg) of RNA encoding a truncated substrate (e.g., VSG—11786) was translated in […] of a reaction mixture containing 20 μl rabbit reticulocyte lysate, 60 μM amino acid mixture (-Met, -Cys), and 2.4 μCi [^35S]Promix. The reaction was incubated at 37° C. for 15 minutes. Cycloheximide (50 μg/ml, final concentration) was used to stop further translation, and the mixture was divided into two portions. T. brucei microsomes (ThRM) (1 equivalent) was added to one aliquot, and to the other portion an equal volume of RM buffer was added. The reactions were incubated at 37° C. for 45 minutes for protein import into TbRM to take place post-translationally.
Each reaction mixture was divided into three (each 10 μl) and treated with one of the following on ice for one hour: (I) RM buffer; (ii) 30 μg/ml protease K; (iii) nonidet P-40 (NP-40) (2%, final concentration) followed by protease K (30 μg/ml, final concentration). PMSF (20 mM final concentration) was added to stop protease K digestion. Samples were precipitated with an equal volume of cold (NH4)2SO4 sulphate (saturated) and resolved by sodium dodecyl sulfate-polyacrylamide gel electrophoresis (SDS-PAGE) (4% total acrylamide, 3% cross linker in tricene-HCl system) (Fekkes et al., 1998, Mol Microbiol; 29(5):1179-90). The gels were dried, and radioactive polypeptides detected with a phosphorimager (Molecular Imager FX, (BioRad). Data bands were quantitated with QuantityOne software (BioRad), and graphs were plotted with DeltaGraph (Red Rock software).
A small molecule inhibitor of Hsp70-Hsp40 interaction blocks protein translocation into TbRM. Post-translational ER protein translocation in Saccharomyces cerevisiae and E. coli requires cytosolic chaperones. In the yeast S. cerevisiae, for example, Ssa1p (Hsp70) and co-chaperone Ydj1p (Hsp40) (Becker et al., 1996, Mol Cell Biol; 16(8):4378-86; Ngosuwan et al., 2003, J Biol Chem; 278(9):7034-42; and McClellan et al., 1998, Mol Biol Cell; 9(12): 3533-45) as well as Kar2p/BiP stimulate post-translational protein import (Lyman and Schekman, 1995, J Cell Biol; 131(5):1163-71; Panzner et al., 1995, Cell; 81(4):561-70; and Holkeri et al., 1998, J Cell Sci; 111:749-757). […]

HeLa cells = experiment: HeLa cell viability, propidium iodide exclusion assay; type: cell-based, human
Description: HeLa cells, treated with DMSO, MAL3-101, MAL3-51, CJ-21,058 or equisetin, were subject to a propidium iodide viability assay and analyzed by flow cytometry.
HeLa cell line was maintained in RPMI-1640 supplemented with 10% bovine serum, 100 U/ml penicillin/streptomycin, and 2 mM L-glutamine at 37° C. in 5% CO2.
HeLa cell viability assays. Propidium iodide exclusion assay (reviewed in Steff et al., 2001, Cytometry; 45(4):237-43 and Wigg et al., 2003, Anal Biochem; 317(1):19-25) was used to determine HeLa cell viability after drug treatment. Cells were plated at 1×10^4 cells per well (96 well plate) with or without addition of test compounds for the stated time periods, as described for FIGS. 1-4. […] Adherent cells were rinsed with phosphate buffered saline (PBS), trypsinized (37° C. for 5 minutes), pelleted (2,000 g, 2 minutes), resuspended in PBS (500 μl) containing propidium iodide (1 μg/ml), DAPI [4′-6-Diamidino-2-phenylindole] (5 μg/ml) and analyzed by flow cytometry on a Dakocytomation CyAn without gating. Single fluorophore controls were acquired prior to the collection of the experimental data.

| inhibition of translocation of VSG—11786 into TbRM ([1]; CJ-21,058 20 μM) | Structure (SMILES) | effect on protein import into TbRM (in words) [1] | effect on human HeLa cells (HeLa cells) | VSG—11786 translocated into TbRM (protection from proteinase K digestion) ([1]; MAL3-101 present (0.3 μM in FIG. 2B legend), DMSO control 80%) | inhibition of translocation of VSG—11786 into TbRM ([1]; equisetin 25 μM) | effect on human HeLa cells (HeLa cells; concentrations that killed one hundred percent T. brucei (IC100)) | HeLa cell viability (HeLa cells; equisetin 26 μM) |
| --- | --- | --- | --- | --- | --- | --- | --- |
| 95% | C/C=C/C1C(C)=CC2CC(C)CCC2C1(C)/C(O)=C1/C(=O)C(CO)N(C)C1=O (stereo not drawn) [CJ-21,058] | inhibited import | little effect |  |  |  |  |
|  | CCCCCCN(C(=O)CCCCCN1C(=O)NC(c2ccc(-c3ccccc3)cc2)C(C(=O)OCc2ccccc2)=C1C)C(C(=O)NCCCC)c1ccc(OCC(=O)OC)c(C(=O)OC)c1 (stereo not drawn) [MAL3-101] | blocked import |  | 13% |  |  |  |
|  | C/C=C/[C@@H]1C=C[C@@H]2C[C@H](C)CC[C@H]2[C@]1(C)/C(O)=C1/C(=O)[C@H](CO)N(C)C1=O [equisetin] | inhibited import |  |  | 95% | little effect; also recorded: did not have discernible effects | neither CJ-21,058 (20 μM) nor equisetin (26 μM) decreased viability of HeLa cells |
